# From patent publication US7361658B2, “2-acylaminothiazole derivative or salt thereof” (Astellas Pharma Inc., priority 2003, dated 2008)
# Read-outs that look alike come from different tables or passages of the source.
# What was measured:
# human c-mpl-Ba/F3 cells [1] = target: T1, human c-mpl-Ba/F3 cells (Homo sapiens, UniProt P40238); assay: Human c-mpl-Ba/F3 cell growth test; assay type: cell-based; details: for Emax: read-out: Efficacy
# T1 construct: expressed in transfected cells; host or cells: Ba/F3 (murine pro-B cells) expressing human c-mpl
# T1 sequence (P40238 26-635): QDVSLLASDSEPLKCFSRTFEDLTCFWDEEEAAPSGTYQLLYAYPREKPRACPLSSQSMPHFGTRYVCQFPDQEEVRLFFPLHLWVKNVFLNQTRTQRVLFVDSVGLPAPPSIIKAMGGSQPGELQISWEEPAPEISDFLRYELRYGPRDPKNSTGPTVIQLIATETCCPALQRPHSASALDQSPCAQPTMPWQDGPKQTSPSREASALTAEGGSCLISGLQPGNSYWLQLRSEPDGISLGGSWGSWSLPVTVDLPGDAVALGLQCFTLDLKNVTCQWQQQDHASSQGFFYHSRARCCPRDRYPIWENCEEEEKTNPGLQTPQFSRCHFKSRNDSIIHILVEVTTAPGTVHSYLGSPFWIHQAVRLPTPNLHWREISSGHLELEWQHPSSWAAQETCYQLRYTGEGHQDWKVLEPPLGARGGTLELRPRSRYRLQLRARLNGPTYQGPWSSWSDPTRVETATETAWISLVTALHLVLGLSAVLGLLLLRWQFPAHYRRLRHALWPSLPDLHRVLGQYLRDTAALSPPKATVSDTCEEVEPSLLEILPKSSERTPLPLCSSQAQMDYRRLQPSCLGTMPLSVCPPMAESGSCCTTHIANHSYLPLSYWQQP
# Method: (i) Human c-mpl-Ba/F3 Cell Growth Test
# In a 96-well microplate, 2×10^5 cells/ml of human c-mpl-Ba/F3 cells were cultured at 37° C. in 10% fetal bovine serum-containing RPMI1640 medium (100 μl/well) containing each test compound at each concentration. After 24 hours from the start-up of culture, 10 μl/well of WST-1/1-methoxy PMS (cell counting kit, Dojin) was added. Immediately after addition and 2 hours after addition, absorbance of A450/A650 was measured with a microplate reader (Model 3350: Bio-Rad), and an increase in absorbance for 2 hours was defined as a growth activity of each test compound.
# pot: Concentration of each test compound at which to accelerate cell growth by 30% of a maximum cell growth activity of compound A (compound A and rhTPO in rhTPO)
# Efficacy: Maximum cell growth activity of each test compound when a maximum cell growth activity of compound A (compound A and rhTPO in rhTPO) is defined as 100%.
# Compound A refers to a compound in Example 9 of the foregoing Patent Document 10.
# human c-mpl-Ba/F3 cells [2] = target: T1, human c-mpl-Ba/F3 cells; assay: Mouse oral administration test: human c-mpl-Ba/F3 cell growth activity of a plasma after oral administration; assay type: in vivo; details: male ICR mouse, plasma 2 h after administration, maximum activity of each test compound = 100%
# Method: (iii) Mouse Oral Administration Test
# 3 mg/kg or 10 mg/kg (100 mg/kg in Comparative Compounds 1 to 3) of a test compound dissolved or suspended in a 0.5% methylcellulose aqueous solution was orally administered to a male ICR mouse. After 2 hours from administration, a blood was sampled from the subabdominal large vein using 1/10-volume 3.8% sodium citrate as an anticoagulant. Centrifugation was performed at 12,000 rpm for 3 minutes. The resulting plasma was heated at 56° C. for 30 minutes, and added to a system of the human c-mpl-Ba/F3 cell growth test described in (i) such that the final concentration of the plasma reached 0.3%, 1% or 3% (10% in Comparative Compounds 1 to 3) to measure a cell growth activity. The cell growth activity (%) of each plasma was measured when the maximum cell growth activity of each test compound was defined as 100%.
# [3] = concentration at which cell growth is accelerated by 30% of the maximum cell growth activity of compound A, 24 h culture
# [4] = maximum cell growth activity, maximum of compound A defined as 100%
# [5] = 100 mg/kg p.o., dilution rate 10%
# [6] = concentration at which cell growth is accelerated by 30% of the maximum cell growth activity of rhTPO (applies to compound A and rhTPO)
# [7] = maximum cell growth activity, maximum of rhTPO defined as 100% (applies to compound A and rhTPO)
Molecule,Pot (human c-mpl-Ba/F3 cells [1]; [3]),Emax (human c-mpl-Ba/F3 cells [1]; [4]),also measured
"O=C1NC(=S)S/C1=C\c1ccc(C(=O)Nc2nc(-c3ccc(Cl)c(Cl)c3)cs2)cc1 [Comparative Compound 1, reference compound]",4.4 nM,101%,Cell growth activity (human c-mpl-Ba/F3 cells [2]; [5]): <10%
"O=C(O)/C(Cl)=C/c1ccc(C(=O)Nc2nc(-c3ccc(Cl)c(Cl)c3)cs2)cc1 [Comparative Compound 2, reference compound]",2.1 nM,96%,Cell growth activity (human c-mpl-Ba/F3 cells [2]; [5]): <10%
"Cc1sc(NC(=O)c2ccc(/C=C(\Cl)C(=O)O)cc2)nc1-c1cccc(C(F)(F)F)c1 [Comparative Compound 3, reference compound]",6.9 nM,96%,Cell growth activity (human c-mpl-Ba/F3 cells [2]; [5]): <10%
"COc1cc(C(=O)Nc2nc(-c3ccc(F)cc3)c(N3CCN(C4CCCCC4)CC3)s2)ccn1 [Comparative Compound 4, reference compound]",251 nM,95%,–
"O=C(Nc1nc(-c2cc(Cl)cs2)c(N2CCN(C3CCCCC3)CC2)s1)c1ccc(OCCO)c(Cl)c1 [Compound A, reference compound]",–,–,Pot (human c-mpl-Ba/F3 cells [1]; [6]): 10 nM; Emax (human c-mpl-Ba/F3 cells [1]; [7]): 87%
"CN(C)Cc1sc(NC(=O)c2cnc(N3CCC(C(=O)O)CC3)c(Cl)c2)nc1-c1cc(Cl)cs1 [Example 65, 1-(3-chloro-5-{[4-(4-chlorothiophen-2-yl)-5-(dimethylaminomethyl)thiazol-2-yl]carbamoyl}-2-pyridyl)piperidine-4-carboxylic acid]",4.3 nM,114%,"Cell growth activity (human c-mpl-Ba/F3 cells [2]; 3 mg/kg p.o., dilution rate 3%): ≧80%"
"C[C@@H]1CCCN1Cc1sc(NC(=O)c2cnc(N3CCC(C(=O)O)CC3)c(Cl)c2)nc1-c1cc(Cl)cs1 [Example 107, 1-{3-chloro-5-[(4-(4-chlorothiophen-2-yl)-5-{[(2R)-2-methylpyrrolidin-1-yl]methyl}thiazol-2-yl)carbamoyl]-2-pyridyl}piperidine-4-carboxylic acid]",1.5 nM,112%,–
"CO[C@@H](C)CN(C)Cc1sc(NC(=O)c2cnc(N3CCC(C(=O)O)CC3)c(Cl)c2)nc1-c1cc(Cl)cs1 [Example 111, 1-{3-chloro-5-[(4-(4-chlorothiophen-2-yl)-5-{[[(2S)-2-methoxypropyl](methyl)amino]methyl}thiazol-2-yl)carbamoyl]-2-pyridyl}piperidine-4-carboxylic acid]",6.0 nM,87%,–
"C[C@@H]1CCCN1Cc1sc(NC(=O)c2cnc(N3CC(CC(=O)O)C3)c(Cl)c2)nc1-c1cc(Cl)cs1 [Example 222, (1-{3-chloro-5-[(4-(4-chlorothiophen-2-yl)-5-{[(2R)-2-methylpyrrolidin-1-yl]methyl}thiazol-2-yl)carbamoyl]-2-pyridyl}azetidin-3-yl)acetic acid]",4.4 nM,102%,–
"C[C@@H]1CCCN1Cc1sc(NC(=O)c2cnc(N(C)CCCC(=O)O)c(Cl)c2)nc1-c1cc(Cl)cs1 [Example 226, 4-[{3-chloro-5-[(4-(4-chlorothiophen-2-yl)-5-{[(2R)-2-methylpyrrolidin-1-yl]methyl}thiazol-2-yl)carbamoyl]-2-pyridyl}(methyl)amino]butyric acid]",4.6 nM,88%,–
"CC(C)N(C)Cc1sc(NC(=O)c2cnc(N(C)CCCC(=O)O)c(Cl)c2)nc1-c1cc(Cl)cs1 [Example 227, 4-[{3-chloro-5-[(4-(4-chlorothiophen-2-yl)-5-{[isopropyl(methyl)amino]methyl}thiazol-2-yl)carbamoyl]-2-pyridyl}(methyl)amino]butyric acid]",3.2 nM,88%,–
"C[C@H]1CCCN1Cc1sc(NC(=O)c2cnc(N3CCC(C(=O)O)CC3)c(F)c2)nc1-c1cc(Cl)cs1 [Example 314, 1-{5-[(4-(4-chlorothiophen-2-yl)-5-{[(2S)-2-methylpyrrolidin-1-yl]methyl}thiazol-2-yl)carbamoyl]-3-fluoro-2-pyridyl}piperidine-4-carboxylic acid]",–,–,"Cell growth activity (human c-mpl-Ba/F3 cells [2]; 3 mg/kg p.o., dilution rate 3%): 52%"
"rhTPO: thrombopoietin (TPO), a c-Mpl ligand; a protein",–,–,Pot (human c-mpl-Ba/F3 cells [1]; [6]): 0.012 nM; Efficacy (human c-mpl-Ba/F3 cells [1]; [7]): 100%
